Data set [1] can be described thus: M4N stability in 11-14 mg/mL PEG300/HP-β-CD solutions at room temperature (RP-HPLC). The class given is physicochemical. Conditions: for Observed M4N: room temperature. Here is the method:
To support manufacturing specifications, this study examined the 24-hour room temperature stability of combinations of PEG300/HP-β-CD at varying M4N target concentrations. Stock samples of M4N stocks were prepared in 100% PEG 300 at drug concentrations of 33-56 mg/mL at 60° C. as follows.
M4N bulk drug was solubilized to concentrations of 33, 44, 48, 52, 55 and 56 mg/mL (w/w) in PEG 300 using the procedure set forth in Examples 13 and 16, following incubation of at least 2 hours at 60° C. Vigorous vortexing and mixing were necessary for complete solubilization of M4N above 44 mg/mL. The M4N stock solutions were filtered through a 0.45 μm SFCA filter and used within 30 minutes of preparation. Separately, a solution of 40% (w/v) HP-β-CD was prepared in sterile WFI and filtered. Combinations of the 40% HP-β-CD stock and the M4N/PEG 300 stocks were combined in 1.5 mL polypropylene microtubes.
The requisite amount of M4N stock was added to 40% HP-β-CD to yield the final concentrations of drug and excipients listed in Table 28. Samples were gently rotated (˜12 rpm) at room temperature. At 2 and 24 hours of incubation, samples were centrifuged 2 minutes at 13,000 rpm and 50 μL aliquots were removed for RP-HPLC analysis.

A short description of data set [2]: Compatibility of IV tubing for delivery of M4N (visual inspection and HPLC). The following applies: PTFE and fluorelastomer, polypropylene, FEP, polyethylene, platinum cured silicone (small size). The procedure: In this experiment, various types of tubing were tested for compatibility and for optimizing intravenous delivery of M4N. The tests on compatibility were based on visual inspection and HPLC (high pressure liquid chromatography) analysis.
The visual inspection was conducted as follows: About 5 mL of a formulation to be tested (“formulated material”) were passed through a tubing of about 20 cm in length. The formulated material was kept inside the tube for about 24 hr at room temperature (25° C.). The formulated material was then circulated several times (about 5 times, for example) through the tubing and was collected in a beaker or a collection tube. The formulated material was carefully inspected for precipitates or particulates present, including by holding the beaker or collection tube against a white background followed by a dark background.
The compatibility test using HPLC analysis varied in the methodology depending on the tubing being tested, the length of time and the purpose of the tubing. This test measured the amount of M4N in solution before and after circulation through different tubing.

A short description of data set [3]: 7-Day intravenous infusion study in Beagle dogs: toxicokinetic serum analysis. The class given is in vivo. The procedure: This study was conducted to evaluate the toxicokinetic profile of M4N formulated in 30% HP-β-CD and 25% PEG 300 when administered as a single intravenous infusion dose for seven consecutive days in beagle dogs. This study constitutes the first study of this particular formulation of M4N in dogs and was executed to evaluate the toxicity and compare tolerability of a diluted formulation (10 mg/mL versus 5 mg/mL).
A total of twelve beagle dogs (8 male/4 female) were dosed with M4N via a 54-minute (Group 2) or 108-minute (Groups 1, 3 and 4) intravenous infusion. All animals received seven doses, one per day over seven consecutive days.
The following parameters were evaluated: clinical observations and body weights. Test article analysis was performed on Study Days 1 and 7, blood samples (targeting a volume of 2.0 mL) were collected from each animal from an appropriate vessel at the following time points: […]

Data set [4] has as its system healthy male subjects. Put plainly: Human Phase 0 microdose study: tolerability. The class given is in vivo. Conditions: oral and intravenous administrations, 100 μg. The procedure:
This study was designed to assess the absorption of M4N when administered to humans as a sub-therapeutic dose either as a single oral dose under fed and fasted conditions or a single intravenous dose (Regimens A-C, respectively, in Table 24). The study was a three-way crossover study design in a target population of healthy male subjects and consisted of three study periods of approximately 35 hours duration, each separated by a minimum period of at least 7 days between dosing. During the course of each study period, pharmacokinetic blood samples were taken at specified time points after dosing and urine was collected over pre-defined time intervals. The subjects were able to leave the clinical unit after the completion of study specific procedures at 24 hours post-dose.

As to `COc1ccc(C[C@@H](C)[C@@H](C)Cc2ccc(OC)c(OC)c2)cc1OC` [Formulation M4N, meso-1,4-bis(3,4-dimethoxyphenyl)-2,3-dimethylbutane], the “Observed M4N” value is 11.5 mg/mL in data set [1] (11 mg/mL M4N, 20% PEG300, 32% HP-β-CD, t = 2 hours); 11.4 mg/mL in data set [1] (11 mg/mL M4N, 20% PEG300, 32% HP-β-CD, t = 24 hours); 11.3 mg/mL in data set [1] (11 mg/mL M4N, 25% PEG300, 30% HP-β-CD, t = 2 hours); 11.3 mg/mL in data set [1] (11 mg/mL M4N, 25% PEG300, 30% HP-β-CD, t = 24 hours); 11.4 mg/mL in data set [1] (11 mg/mL M4N, 33% PEG300, 27% HP-β-CD, t = 2 hours); 11.3 mg/mL in data set [1] (11 mg/mL M4N, 33% PEG300, 27% HP-β-CD, t = 24 hours). Also, the “Observed M4N” value in data set [1] (12 mg/mL M4N, 25% PEG300, 30% HP-β-CD, t = 2 hours) came to 11.8 mg/mL; in data set [1] (12 mg/mL M4N, 25% PEG300, 30% HP-β-CD, t = 24 hours), 11.6 mg/mL; in data set [1] (13 mg/mL M4N, 25% PEG300, 30% HP-β-CD, t = 2 hours), 12.7 mg/mL; in data set [1] (13 mg/mL M4N, 25% PEG300, 30% HP-β-CD, t = 24 hours), 12.7 mg/mL; in data set [1] (14 mg/mL M4N, 25% PEG300, 30% HP-β-CD, t = 2 hours), 13.5 mg/mL; in data set [1] (14 mg/mL M4N, 25% PEG300, 30% HP-β-CD, t = 24 hours) it was 13.5 mg/mL. Further, the stability result in data set [1] (11-14 mg/mL M4N, 25% PEG 300 and 30% HP-β-CD, 24 hours at room temperature) is “stable”. The “compatibility of tubing for delivery of M4N (threshold about 90% of M4N remaining in solution)” value in data set [2] is given as “compatible”. The “peak test article concentration in serum” value was determined as 33420 ng/mL in data set [3] (Group 2, 45 mg/kg (10 mg/mL), 54-minute IV infusion); 46704 ng/mL in data set [3] (Group 3, 90 mg/kg (10 mg/mL), 108-minute IV infusion); 18759 ng/mL in data set [3] (Group 4, 45 mg/kg (5 mg/mL), 108-minute IV infusion). In addition, the “time of maximum concentration” value came to 0.9 h in data set [3] (Group 2, end of infusion); 1.8 h in data set [3] (Groups 3 and 4, end of infusion). Further, the adverse events result in data set [4] is “no serious or severe adverse events”. Moreover, the “tolerability of study formulations” value in data set [4] was “well tolerated”.

The values are drawn from patent US20080096967A1, “Formulations for Injection of Catecholic Butanes, Including Ndga Compounds, Into Animals” (priority 2005, published 2008).
